Assay results as given in patent US20100120799A1, “PURINE DERIVATIVES AS IMMUNOMODULATORS” (SMITHKLINE BEECHAM CORPORATION, priority 2007, published 2010).
Values joined by “and” are separate entries in the source; they are usually repeats but may differ in a detail not shown here. Identical values can stand only once.

How the values were obtained:
[1] = test system: HCV ET replicon cells (Huh-7, HCV Con1-ET construct); test: Replicon assay: inhibition of Hepatitis C virus replication by supernatants from compound-stimulated human PBMC; type: cell-based; settings: Huh-7 HCV ET replicon, luciferase, 48 h incubation, read-out: mean EC50 (compound concentration giving a PBMC supernatant inhibiting HCV replication by 50%)
Experimental: Inhibition of Hepatitis C virus Replication by Supernatants from Compound-Stimulated Human Peripheral Blood Mononuclear Cells (PBMC).
An assay was established to measure the antiviral activity in supernatants from human PBMC which had been previously stimulated with compounds.
Activity assays were conducted using an Huh-7 cell line stably-transfected with a dicistronic replicon, comprising the HCV Con1-ET construct (Pietschmann et al., 2002 J. Virol. 2002 76(8):4008-21) and the firefly (Photinus pyralis) luciferase gene, obtained from ReBLikon GmbH, Germany.
1.5×10^4 HCV ET replicon cells per well were grown in 96-well plates overnight in 90 microlitres of cell culture medium. Ten microlitres of three-fold dilutions of PBMC supernatants generated above (stimulation of human donor blood-derived peripheral blood mononuclear cells (PBMC) with test compounds) were added to the ET cells. Following a 48-hour incubation, assay medium was removed and luciferase activity measured in the cell monolayers using the Steadylite assay system (Perkin Elmer). EC50 values were calculated as the compound concentration giving a PBMC supernatant which was able to inhibit HCV replication by 50% compared with a supernatant from unstimulated PBMC cultures.

[2] = test system: Ovalbumin (OVA)-induced acute pulmonary inflammation; test: Ovalbumin-induced acute pulmonary inflammation model; type: in vivo, BALB/c mice; settings: BAL on day 28
Experimental: Inhibition of Ovalbumin (OVA)—Induced Acute Pulmonary Inflammation. Female BALB/c mice (18-20 g) were inoculated on days 0 and 14, with 10 μg OVA adsorbed to 2 mg aluminium hydroxide in a volume of 0.2 ml phosphate buffered saline (PBS) via the intra-peritoneal route. On days 24-26, mice were intra-nasally challenged with 50 μl of either saline or OVA (formulated as above) under general anaesthesia. […] Doses were given once daily on days 23 to 27 with the initial dose 24 h prior to the first challenge. On the days of challenge, animals were dosed with compound or vehicle one hour after challenge. Animals therefore received a total of 5 doses. Dexamethasone was used as a positive control dosed at 10 mg/kg orally in the same vehicle once daily on days 24 to 27 with the initial dose 1 h prior to the first challenge. Animals therefore received a total of 4 doses. Animals were killed on day 28 (48 hours post last saline or OVA challenge) and bronchoalveolar lavage (BAL) was performed with 5×1 ml (0.1% bovine serum albumin, 10 mM EDTA in PBS) and pooled. Numbers of lymphocytes, macrophages, eosinophils and neutrophils in BAL were identified by light scatter flow cytometry and quantified.

[3] = 5 mg/kg orally once daily days 23 to 27, compared with saline treated controls
[4] = positive control, 10 mg/kg orally once daily days 24 to 27, 10 mg/kg

SMILES | EC50 [1] | reduction of eosinophil counts in BAL [2, 3] | reduction of lymphocyte counts in BAL [2, 3] | reduction of neutrophil counts in BAL [2, 3] | reduction of eosinophil counts in BAL [2, 4] | reduction of lymphocyte counts in BAL [2, 4] | reduction of neutrophil counts in BAL [2, 4]
CCCCOc1nc(N)c2[nH]c(=O)n(CC3CCOCC3)c2n1 [Example 1, 6-Amino-2-butoxy-9-(tetrahydro-2H-pyran-4-ylmethyl)-7,9-dihydro-8H-purin-8-one] | 43 nM |  |  |  |  |  | 
CCCCNc1nc(N)c2[nH]c(=O)n(CC3CCOCC3)c2n1 [Example 4, 6-Amino-2-butylamino-9-(tetrahydro-2H-pyran-4-ylmethyl)-7,9-dihydro-8H-purin-8-one] | 1050 nM | 72% | 66% | 50% |  |  | 
CCCCOc1nc(N)c2[nH]c(=O)n(CC3CCCOC3)c2n1 (centres unmarked) [Example 12, 6-Amino-2-butoxy-9-(tetrahydro-2H-pyran-3-ylmethyl)-7,9-dihydro-8H-purin-8-one] |  | 67% | 68% | 58% |  |  | 
C[C@@H]1C[C@H]2[C@@H]3CCC4=CC(=O)C=C[C@]4(C)[C@@]3(F)[C@@H](O)C[C@]2(C)[C@@]1(O)C(=O)CO [dexamethasone, Dexamethasone, reference compound] |  |  |  |  | 92% and 86% | 87% and 86% | 68% and 65%
